# pIC50: −log10 of the molar value.
# Tested on: HT-29 cells
# Experiment: HT-29 necroptosis cell viability assay (TNF-α/SMAC mimetic/zVAD-FMK, CellTiter-Glo)
# Type: cell-based
# Details: Homo sapiens, HT-29, HT-29 necroptosis cell viability, IC50 class symbols; read-out: Activity
# Procedure, shortened: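 Necroptosis was triggered by TNF-α (10 ng/ml), SMAC mimetic (6 μM) and zVAD-FMK (10 μM) in serum-free medium during 20 h compound exposure (10 concentrations, threefold steps) of HT-29 cells. IC50 from duplicate dose-responses uses CellTiter-Glo ATP luminescence as viability read-out.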
row,SMILES,pIC50
1,"C[C@H]1[C@@H](N)CN1c1cc(Oc2ccc(-n3ncn(Cc4c(F)cccc4F)c3=O)cc2F)c(Cl)cn1 [Example 425, 2-(4-((2-((2S,3S)-3-amino-2-methylazetidin-1-yl)-5-chloropyridin-4-yl)oxy)-3-fluorophenyl)-4-(2,6-difluorobenzyl)-2,4-dihydro-3H-1,2,4-triazol-3-one]",> 7.00
2,"C[C@H]1[C@@H](N(C)C)CN1c1cc(Oc2ccc(-n3ncn(Cc4c(F)cccc4F)c3=O)cc2F)c(Cl)cn1 [Example 426, 2-(4-((5-chloro-2-((2S,3S)-3-(dimethylamino)-2-methylazetidin-1-yl)pyridin-4-yl)oxy)-3-fluorophenyl)-4-(2,6-difluorobenzyl)-2,4-dihydro-3H-1,2,4-triazol-3-one]",> 7.00
3,"O=c1n(-c2ccc(Oc3cccnc3)cc2)nc(Cl)n1Cc1ccccc1 [Example 427, 4-benzyl-5-chloro-2-(4-(pyridin-3-yloxy)phenyl)-2,4-dihydro-3H-1,2,4-triazol-3-one]",> 7.00
4,"O=c1n(-c2ccc(Oc3ccccc3)cc2)nc2n1C(c1ccccc1)CC2 (stereo not drawn) [Example 428, 2-(4-phenoxyphenyl)-5-phenyl-2,5,6,7-tetrahydro-3H-pyrrolo[2,1-c][1,2,4]triazol-3-one]",> 7.00
5,"Cn1c(Oc2ccc(-n3nc(Cl)n(Cc4ccccc4)c3=O)cc2)cccc1=O [Example 429, 6-(4-(4-benzyl-3-chloro-5-oxo-4,5-dihydro-1H-1,2,4-triazol-1-yl)phenoxy)-1-methylpyridin-2(1H)-one]",6.00 to 7.00
6,"O=c1n(-c2ccc(Oc3ccccc3[N+](=O)[O-])cc2)nc(Cl)n1Cc1ccccc1 [Example 430, 4-benzyl-5-chloro-2-(4-(2-nitrophenoxy)phenyl)-2,4-dihydro-3H-1,2,4-triazol-3-one]",6.00 to 7.00
7,"O=c1n(Cc2c(F)cccc2F)cnn1-c1ccc(Oc2ccnnc2)cc1 [Example 431, 4-(2,6-difluorobenzyl)-2-(4-(pyridazin-4-yloxy)phenyl)-2,4-dihydro-3H-1,2,4-triazol-3-one]",5.00 to 6.00
8,"O=c1n(Cc2c(F)cccc2F)cnn1-c1ccc(Oc2ccncc2Br)cc1 [Example 432, 2-(4-((3-bromopyridin-4-yl)oxy)phenyl)-4-(2,6-difluorobenzyl)-2,4-dihydro-3H-1,2,4-triazol-3-one]",> 7.00
9,"O=c1n(Cc2c(F)cccc2F)cnn1-c1ccc(Oc2ccccc2[N+](=O)[O-])cc1 [Example 433, 4-(2,6-difluorobenzyl)-2-(4-(2-nitrophenoxy)phenyl)-2,4-dihydro-3H-1,2,4-triazol-3-one]",6.00 to 7.00
10,"O=c1n(Cc2c(F)cccc2F)cnn1-c1ccc(Oc2c(Cl)cccc2[N+](=O)[O-])cc1 [Example 434, 2-(4-(2-chloro-6-nitrophenoxy)phenyl)-4-(2,6-difluorobenzyl)-2,4-dihydro-3H-1,2,4-triazol-3-one]",> 7.00
11,"N#Cc1ccc(Oc2ccc(-n3ncn(Cc4c(F)cccc4F)c3=O)cc2)cc1 [Example 435, 4-(4-(4-(2,6-difluorobenzyl)-5-oxo-4,5-dihydro-1H-1,2,4-triazol-1-yl)phenoxy)benzonitrile]",6.00 to 7.00
12,"COc1cc(Oc2ccc(-n3ncn(Cc4c(F)cccc4F)c3=O)cc2)cc(OC)n1 [Example 436, 4-(2,6-difluorobenzyl)-2-(4-((2,6-dimethoxypyridin-4-yl)oxy)phenyl)-2,4-dihydro-3H-1,2,4-triazol-3-one]",6.00 to 7.00
13,"N#Cc1cccc(Oc2ccc(-n3ncn(Cc4c(F)cccc4F)c3=O)cc2)c1 [Example 437, 3-(4-(4-(2,6-difluorobenzyl)-5-oxo-4,5-dihydro-1H-1,2,4-triazol-1-yl)phenoxy)benzonitrile]",> 7.00
14,"O=c1n(Cc2c(F)cccc2F)cnn1-c1ccc(Oc2ccncc2)cc1 [Example 438, 4-(2,6-difluorobenzyl)-2-(4-(pyridin-4-yloxy)phenyl)-2,4-dihydro-3H-1,2,4-triazol-3-one]",6.00 to 7.00
15,"Nc1ccccc1Oc1ccc(-n2ncn(Cc3c(F)cccc3F)c2=O)cc1 [Example 439, 2-(4-(2-aminophenoxy)phenyl)-4-(2,6-difluorobenzyl)-2,4-dihydro-3H-1,2,4-triazol-3-one]",> 7.00
16,"Nc1cccc(Cl)c1Oc1ccc(-n2ncn(Cc3c(F)cccc3F)c2=O)cc1 [Example 440, 2-(4-(2-amino-6-chlorophenoxy)phenyl)-4-(2,6-difluorobenzyl)-2,4-dihydro-3H-1,2,4-triazol-3-one]",> 7.00
17,"Nc1cnc(Cl)cc1Oc1ccc(-n2ncn(Cc3c(F)cccc3F)c2=O)cc1 [Example 441, 2-(4-((5-amino-2-chloropyridin-4-yl)oxy)phenyl)-4-(2,6-difluorobenzyl)-2,4-dihydro-3H-1,2,4-triazol-3-one]",> 7.00

row,SMILES,pIC50
1,"Nc1cccc(F)c1Oc1ccc(-n2ncn(Cc3c(F)cccc3F)c2=O)cc1 [Example 442, 2-(4-(2-amino-6-fluorophenoxy)phenyl)-4-(2,6-difluorobenzyl)-2,4-dihydro-3H-1,2,4-triazol-3-one]",> 7.00
2,"Cn1ncc(N)c1Oc1ccc(-n2ncn(Cc3c(F)cccc3F)c2=O)cc1 [Example 443, 2-(4-((4-amino-1-methyl-1H-pyrazol-5-yl)oxy)phenyl)-4-(2,6-difluorobenzyl)-2,4-dihydro-3H-1,2,4-triazol-3-one]",6.00 to 7.00
3,"Cc1nc(C(N)=O)sc1Oc1ccc(-n2nc3n(c2=O)[C@H](c2ccccc2)CO3)cc1F [Example 445, (R)-5-(2-fluoro-4-(3-oxo-5-phenyl-5,6-dihydrooxazolo[2,3-c][1,2,4]triazol-2(3H)-yl)phenoxy)-4-methylthiazole-2-carboxamide]",> 7.00
4,"Cc1nc(C(O)C(F)F)sc1Oc1ccc(-n2ncn(Cc3c(F)cccc3F)c2=O)cc1F (stereo not drawn) [Example 446, 2-(4-((2-(2,2-difluoro-1-hydroxyethyl)-4-methylthiazol-5-yl)oxy)-3-fluorophenyl)-4-(2,6-difluorobenzyl)-2,4-dihydro-3H-1,2,4-triazol-3-one]",> 7.00
5,"Cc1nc(C(N)C(F)F)sc1Oc1ccc(-n2ncn(Cc3c(F)cccc3F)c2=O)cc1F (stereo not drawn) [Example 447, 2-(4-((2-(1-amino-2,2-difluoroethyl)-4-methylthiazol-5-yl)oxy)-3-fluorophenyl)-4-(2,6-difluorobenzyl)-2,4-dihydro-3H-1,2,4-triazol-3-one]",> 7.00
6,"C[C@H]1[C@@H](O)CN1c1cc(Oc2ccc(-n3ncn(Cc4c(F)cccc4F)c3=O)cc2F)c(F)cn1 [Example 448, 4-(2,6-difluorobenzyl)-2-(3-fluoro-4-((5-fluoro-2-((2S,3S)-3-hydroxy-2-methylazetidin-1-yl)pyridin-4-yl)oxy)phenyl)-2,4-dihydro-3H-1,2,4-triazol-3-one]",> 7.00
7,"CC(=O)c1nc(C)c(Oc2ccc(-n3ncn(Cc4c(F)cccc4F)c3=O)cc2F)s1 [Example 449, 2-(4-((2-acetyl-4-methylthiazol-5-yl)oxy)-3-fluorophenyl)-4-(2,6-difluorobenzyl)-2,4-dihydro-3H-1,2,4-triazol-3-one]",> 7.00
8,"Cc1nc(N2CC(N)(C(F)F)C2)sc1Oc1ccc(-n2ncn(Cc3c(F)cccc3F)c2=O)cc1F [Example 450, 2-(4-((2-(3-amino-3-(difluoromethyl)azetidin-1-yl)-4-methylthiazol-5-yl)oxy)-3-fluorophenyl)-4-(2,6-difluorobenzyl)-2,4-dihydro-3H-1,2,4-triazol-3-one]",> 7.00
9,"Cc1nc(N2CC(C)(N)C2)sc1Oc1ccc(-n2ncn(Cc3c(F)cccc3F)c2=O)cc1F [Example 451, 2-(4-((2-(3-amino-3-methylazetidin-1-yl)-4-methylthiazol-5-yl)oxy)-3-fluorophenyl)-4-(2,6-difluorobenzyl)-2,4-dihydro-3H-1,2,4-triazol-3-one]",> 7.00
10,"Cc1nc(N2CC(N)(CF)C2)sc1Oc1ccc(-n2ncn(Cc3c(F)cccc3F)c2=O)cc1F [Example 452, 2-(4-((2-(3-amino-3-(fluoromethyl)azetidin-1-yl)-4-methylthiazol-5-yl)oxy)-3-fluorophenyl)-4-(2,6-difluorobenzyl)-2,4-dihydro-3H-1,2,4-triazol-3-one]",> 7.00
11,"Cc1nc(N2CC(N)(CF)C2)sc1Cc1ccc(-n2ncn(Cc3c(F)cccc3F)c2=O)cc1F [Example 453, 2-(4-((2-(3-amino-3-(fluoromethyl)azetidin-1-yl)-4-methylthiazol-5-yl)methyl)-3-fluorophenyl)-4-(2,6-difluorobenzyl)-2,4-dihydro-3H-1,2,4-triazol-3-one]",> 7.00
12,"Cc1nc(N2CCC(C)(C#N)C2)sc1Oc1ccc(-n2ncn(Cc3c(F)cccc3F)c2=O)cc1 (stereo not drawn) [Example 454, 1-(5-(4-(4-(2,6-difluorobenzyl)-5-oxo-4,5-dihydro-1H-1,2,4-triazol-1-yl)phenoxy)-4-methylthiazol-2-yl)-3-methylpyrrolidine-3-carbonitrile]",> 7.00
13,"Cc1nc(N2CC3(CCN3)C2)sc1Oc1ccc(-n2ncn(Cc3c(F)cccc3F)c2=O)cc1 [Example 455, 4-(2,6-difluorobenzyl)-2-(4-((4-methyl-2-(1,6-diazaspiro[3.3]heptan-6-yl)thiazol-5-yl)oxy)phenyl)-2,4-dihydro-3H-1,2,4-triazol-3-one]",> 7.00
14,"Cc1nc(N2CC(OC(C)(C)C)C2)sc1Oc1ccc(-n2ncn(Cc3c(F)cccc3F)c2=O)cc1 [Example 456, 2-(4-((2-(3-(tert-butoxy)azetidin-1-yl)-4-methylthiazol-5-yl)oxy)phenyl)-4-(2,6-difluorobenzyl)-2,4-dihydro-3H-1,2,4-triazol-3-one]",> 7.00
15,"Cc1nc(N2CC3(CCO3)C2)sc1Oc1ccc(-n2ncn(Cc3c(F)cccc3F)c2=O)cc1 [Example 457, 4-(2,6-difluorobenzyl)-2-(4-((4-methyl-2-(1-oxa-6-azaspiro[3.3]heptan-6-yl)thiazol-5-yl)oxy)phenyl)-2,4-dihydro-3H-1,2,4-triazol-3-one]",> 7.00
16,"Cc1nc(N)sc1Sc1ccc(-n2ncn(Cc3ccccc3)c2=O)cc1 [Example 458, 2-(4-((2-amino-4-methylthiazol-5-yl)thio)phenyl)-4-benzyl-2,4-dihydro-3H-1,2,4-triazol-3-one]",> 7.00
